# According to article PMC9329436, “Optimization of the 4-anilinoquin(az)oline scaffold as epidermal growth factor receptor (EGFR) inhibitors for chordoma utilizing a toxicology profiling assay platform” (Scientific Reports, 2022):
# Legend:
# U-CH1 chordoma cell line = experiment: Cell viability assay (alamarBlue, 72 h), U-CH1; format: cell-based, human; details: n = 4, 72 h
# Procedure, shortened: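 Cells grown in 4:1 IMDM:RPMI with 10% FBS on gel-coated flasks, dosed in quadruplicate 24 h after seeding in 384-well plates.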
# [1] = test system: U-CH7 patient-derived chordoma cell line; experiment: Cell viability assay (alamarBlue, 72 h), U-CH7; format: cell-based, human; details: n = 4, 72 h
# Procedure, shortened: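 Patient-derived chordoma lines and WS1 fibroblasts seeded in 384-well plates, dosed in quadruplicate 24 h after plating.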
# HL60 cells = experiment: AsedaSciences SYSTEMETRIC Cell Health Screen (flow cytometry toxicity profiling); details: HL60, 4 h, 5 nM–100 µM; for CC: Cell Cycle score / CM: Cell morphology score / CMI: Cell membrane integrity score / GSH: Glutathione score / MMP: Mitochondrial membrane depolarization score / NMI1: Nuclear membrane integrity 1 score / NMI2: Nuclear membrane integrity 2 score / ROS: Reactive superoxide species score: probability 0–1, n = 2; for CHI: Cell Health Index: probability (0–1) of high-risk class, n = 2
# Procedure, shortened: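 HL60 cells (100,000 per well) exposed 4 h at 37 °C, 5% CO2 to 10-step 3× dilutions (5 nM–100 µM), in duplicate. Cells then stained with mitochondrial and cell-stress reporter dyes and read by ungated flow cytometry over twelve parameters. Cell Health Index and eight endpoint scores come from an ML classifier trained on 300 high/low-risk compounds.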
# Aurora-C = target: T1, Aurora-C (Homo sapiens, UniProt Q9UQB9); experiment: 33PanQinase activity assay; format: biochemical; details: for Residual activity: Aurora-C, singlicate
# T1 sequence (Q9UQB9 1-309): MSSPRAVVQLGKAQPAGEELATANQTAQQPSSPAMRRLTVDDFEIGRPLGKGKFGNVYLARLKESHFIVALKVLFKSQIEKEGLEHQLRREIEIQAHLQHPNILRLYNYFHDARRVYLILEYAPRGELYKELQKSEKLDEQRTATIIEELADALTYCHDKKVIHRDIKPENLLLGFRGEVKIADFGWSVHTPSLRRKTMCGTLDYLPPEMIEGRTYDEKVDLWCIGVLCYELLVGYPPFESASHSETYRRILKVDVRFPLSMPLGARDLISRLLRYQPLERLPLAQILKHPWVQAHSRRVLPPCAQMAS
# From the text: (§1) Table S4. Profiling of two compounds at two concentrations against 320 wild-type protein kinases; singlicate measurement; Residual activities (% of control).
# MKNK1 = MKNK1 (Homo sapiens, UniProt Q9BUB5); experiment: 33PanQinase activity assay; format: biochemical; details: for Residual activity: singlicate
# From the text: as §1
# EGFR = EGFR (Homo sapiens, UniProt P00533); experiment: ProQinase in-cell EGFR assay (EGFR phosphorylation in A431 cells); format: cell-based; design: This cell line endogenously expresses a high level of EGFR; endogenous in cells; host or cells: A431
# From the text: In addition, we ran an EGFR in-cell target engagement assay, measuring in-cell EGFR phosphorylation, using the human epidermoid carcinoma cell line A431. This cell line endogenously expresses a high level of EGFR, and stimulation of these cells with human epidermal growth factor (EGF) results in receptor tyrosine autophosphorylation.
# [2] = ProQinase in-cell EGFR assay, A431 cells, n = 1
# Chain of EGFR (P00533 25-1210): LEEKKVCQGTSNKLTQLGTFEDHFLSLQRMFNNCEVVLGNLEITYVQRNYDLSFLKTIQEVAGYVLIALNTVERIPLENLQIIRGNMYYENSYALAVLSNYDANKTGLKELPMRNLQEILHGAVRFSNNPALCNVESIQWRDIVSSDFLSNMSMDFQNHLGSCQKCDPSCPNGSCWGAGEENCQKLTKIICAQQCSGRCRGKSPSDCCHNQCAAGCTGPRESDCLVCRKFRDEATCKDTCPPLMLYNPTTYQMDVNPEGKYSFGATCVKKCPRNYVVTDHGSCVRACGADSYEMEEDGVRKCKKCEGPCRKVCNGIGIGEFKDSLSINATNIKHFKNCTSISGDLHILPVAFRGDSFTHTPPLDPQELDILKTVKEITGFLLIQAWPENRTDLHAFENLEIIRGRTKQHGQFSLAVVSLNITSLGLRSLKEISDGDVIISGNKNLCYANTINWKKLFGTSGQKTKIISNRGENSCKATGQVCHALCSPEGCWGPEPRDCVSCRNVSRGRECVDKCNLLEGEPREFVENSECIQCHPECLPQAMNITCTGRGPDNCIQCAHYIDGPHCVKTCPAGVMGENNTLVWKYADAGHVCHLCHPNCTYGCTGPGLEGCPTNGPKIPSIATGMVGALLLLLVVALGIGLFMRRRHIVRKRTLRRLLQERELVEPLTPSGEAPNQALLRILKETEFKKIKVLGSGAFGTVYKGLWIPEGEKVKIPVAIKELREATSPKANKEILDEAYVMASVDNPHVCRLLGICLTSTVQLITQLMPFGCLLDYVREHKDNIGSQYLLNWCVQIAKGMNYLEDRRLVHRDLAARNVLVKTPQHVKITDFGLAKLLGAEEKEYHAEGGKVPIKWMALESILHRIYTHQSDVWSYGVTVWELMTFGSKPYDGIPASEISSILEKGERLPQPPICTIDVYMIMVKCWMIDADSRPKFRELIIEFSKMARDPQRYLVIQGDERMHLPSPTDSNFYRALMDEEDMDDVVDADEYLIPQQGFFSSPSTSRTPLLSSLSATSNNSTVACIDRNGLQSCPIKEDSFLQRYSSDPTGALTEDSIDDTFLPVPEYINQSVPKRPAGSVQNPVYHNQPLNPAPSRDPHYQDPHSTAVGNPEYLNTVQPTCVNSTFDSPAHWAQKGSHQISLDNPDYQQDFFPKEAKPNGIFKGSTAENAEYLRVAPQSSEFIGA
# Chain of MKNK1 (Q9BUB5 whole entry): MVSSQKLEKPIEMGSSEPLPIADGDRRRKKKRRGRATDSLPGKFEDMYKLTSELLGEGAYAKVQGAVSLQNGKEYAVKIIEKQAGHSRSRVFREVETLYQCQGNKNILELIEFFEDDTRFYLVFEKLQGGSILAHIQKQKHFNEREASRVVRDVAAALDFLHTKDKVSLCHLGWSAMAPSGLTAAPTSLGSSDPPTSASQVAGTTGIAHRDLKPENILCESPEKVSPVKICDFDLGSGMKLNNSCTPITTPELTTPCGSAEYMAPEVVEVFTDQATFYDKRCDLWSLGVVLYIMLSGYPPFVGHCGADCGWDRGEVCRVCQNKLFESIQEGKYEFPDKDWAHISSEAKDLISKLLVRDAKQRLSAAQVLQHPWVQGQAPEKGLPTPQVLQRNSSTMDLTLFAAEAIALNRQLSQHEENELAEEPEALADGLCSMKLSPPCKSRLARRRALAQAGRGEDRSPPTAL
Structure (SMILES),IC50 (U-CH1 chordoma cell line),IC50 [1],CC: Cell Cycle score (HL60 cells),CM: Cell morphology score (HL60 cells),CMI: Cell membrane integrity score (HL60 cells),GSH: Glutathione score (HL60 cells),MMP: Mitochondrial membrane depolarization score (HL60 cells),NMI1: Nuclear membrane integrity 1 score (HL60 cells),NMI2: Nuclear membrane integrity 2 score (HL60 cells),ROS: Reactive superoxide species score (HL60 cells),CHI: Cell Health Index (HL60 cells),Residual activity (Aurora-C; 1.0E-06 M),Residual activity (Aurora-C; 1.0E-07 M),"Residual activity (MKNK1; MKNK1, 1.0E-06 M)","Residual activity (MKNK1; MKNK1, 1.0E-07 M)",IC50 (EGFR; [2]),Aurora-C inhibition (Aurora-C; 10 μM),MKNK1 inhibition (MKNK1; 10 μM),IC50 (EGFR; in-cell EGFR inhibition)
C#Cc1cc(Nc2ncnc3cc(I)ccc23)ccc1Cl [Compound 41],9.1 µM,8 µM,0.91,1.00,1.00,0.99,1.00,1.00,1.00,0.99,0.88,70 % of control,89 % of control,63 % of control,79 % of control,3.7 µM,–,–,–
C#Cc1cc(Nc2ncnc3cc(OC)c(OC)cc23)ccc1Cl [Compound 45],> 100 µM,74 µM,0.10,1.00,0.51,0.079,0.48,0.60,0.40,0.77,0.60,85 % of control,98 % of control,30 % of control,63 % of control,0.018 µM,> 50%,> 50%,< 0.1 µM
